Reference: PubChem BioAssay (NCI)
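A five-concentration, 48-hour dose response in 96-well plates underlies each endpoint, interpolated linearly between surrounding concentrations. GI50: concentration for 50% inhibition of growth. The concentration for full growth arrest is given as TGI.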

System: MDA-MB-468 breast
Experiment: growth of human tumour cells (NCI), 48 h

| Structure (SMILES) | GI50 [µM] | TGI [µM] |
| --- | --- | --- |
| Cn1cc(C2=C(c3cc[nH]c3)C(=O)NC2=O)c2ccccc21 | 11.9 | > 25 |
| Cc1ccc2c(n1)C(=O)C(Cl)=C(Nc1cc(C(F)(F)F)cc(C(F)(F)F)c1)C2=O | 2.01 | 4.57 |
| COc1ccc2c(CCCc3ccc(Cl)cc3Cl)c3[n+](cc2c1OC)CCc1cc2c(cc1-3)OCO2 | 0.195 | 0.894 |
| CC(C)c1[nH]nc2c(NCc3ccc(-c4ccccn4)cc3)nc(SCCN(C)C)nc12 | < 0.0129 | < 0.0238 |
| COc1cc2c(NC3CCN(C(C)C)CC3)nc(C3CCCCC3)nc2cc1OCCCN1CCCC1 | 1.42 | 3.17 |
| COc1cccc(N2CCN(c3ncnc4cc[nH]c34)CC2)c1 | 0.215 | 10.2 |
| Cc1nc2sc(C(=O)Nc3ccccc3)c(N)c2cc1C(O)c1ccccc1 (stereo not drawn) | 0.233 | > 65.3 |
| COc1ccc(/C=C2\COc3ccc(O)c(O)c3C2=O)cc1OC | 1.58 | 4.88 |
| CC1=NN(c2cccc(Cl)c2)C(=O)/C1=C\C=C\c1ccccc1 | 1.66 | 6.14 |
| CCn1cc(C(=O)N/N=C/c2cccs2)c(=O)c2cc(F)c(N3CCNC(C)C3)c(F)c21 (stereo not drawn) | 1.66 | 3.27 |
| c1cc(C2CCCCC2)ccc1-c1cnc2nonc2n1 | 0.316 | 1.36 |
| Oc1ccc(Cl)cc1Sc1cc(Cl)ccc1O | 3.13 | 9.12 |
| Cc1nc2c(O)c3c(c(O)c2nc1C)C1C=CC3CC1 | 0.559 | 1.97 |
| CC(C)c1[nH]nc2c(NCc3ccc(-c4ccccn4)cc3)nc(SCCN)nc12 | 0.00335 | 0.0127 |
| CN(C)CC1C(=O)O[C@H]2[C@H]1CC/C(COC(=O)NCc1ccc(Cn3c(=O)sn(CCCI)c3=O)cc1)=C\CC[C@@]1(C)O[C@@H]21 (stereo partly drawn) | 0.7 | 1.6 |
| O=C(NCc1ccco1)C1CCN(S(=O)(=O)c2ccc(Cl)cc2)CC1 | 46 | > 100 |
| COc1c(B(O)O)cccc1-c1nc2ccc3[nH]ncc3c2c2c1CCCC2 | 1.69 | 4.94 |
| CSc1nnc(-c2cc3c([nH]c4ccccc43)c(-c3cccc(O)c3)n2)n1-c1ccc(C)cc1 | 3.7 | 33.7 |
| CCN(CC)S(=O)(=O)c1cccc(-c2ccc3c(NC(=O)C4CC4)n[nH]c3c2)c1 | 1.22 | > 6.25 |
| C=C1C(=O)O[C@H]2[C@H]1CC/C(COC(=O)CCCCCCCC(=O)OC/C1=C/CC[C@@]3(C)O[C@H]3[C@H]3OC(=O)C(=C)[C@@H]3CC1)=C\CC[C@@]1(C)O[C@@H]21 | 2.37 | 6.46 |
| C(=C\c1ccncc1)/c1ccncc1 | > 100 | > 100 |
| CC(=O)O[C@@H]1C2=C(C)C3(CC3)[C@@](C)(O)C(=O)C2=C[C@@]1(C)CO | 0.209 | 0.591 |
| OC(CN1CCCC2CCCCC21)c1cc2ccccc2c2ccccc12 (stereo not drawn) | 1.73 | 3.62 |
| COC(=O)c1c2c(c(C)[n+]([O-])c1C)C(=O)C(NCc1ccc(F)cc1)=CC2=O | 0.598 | 2.15 |
| CC1=CC(C)(C)Nc2ccc(Cc3ccc4c(c3)C(C)=CC(C)(C)N4)cc21 | 3.81 | 16.2 |
| Cc1cc(Cl)nc(N(CCCNc2ccnc3cc(Cl)ccc23)Cc2cccs2)n1 | 1.04 | 4.25 |
| COCCNCc1ccc(-c2cc3nccc(Oc4ccc(NC(=O)C5(C(=O)Nc6ccc(F)cc6)CC5)cc4F)c3s2)nc1 | 1.74 | 3.41 |
| O=C(NNc1nc2cc(F)cc(F)c2n2cccc12)c1cnccn1 | 0.331 | 2.89 |
| C[C@H]1COCCN1c1nc(-c2cnc(N)cc2C(F)F)nc(N2CCOCC2)n1 | 0.108 | 0.732 |
